Experimental data taken from US8183234B2, “Tricyclic guanidine derivatives as sodium-proton exchange inhibitors” (Piramal Life Sciences Limited, priority 2004, dated 2012).
Counter-ions that a name gives are not always drawn.

| Structure (SMILES) | melting point |
| --- | --- |
| CCN(CCN1CCCC1)c1cc(Cl)c2c(c1)CS(=O)(=O)c1cc(C(=O)N=C(N)N)cc(C)c1O2 (as salt: mesylate) [Example 73, N-{4-Chloro-2-[ethyl-(2-pyrrolidin-1-yl-ethyl)-amino]-6-methyl-10,10-dioxo-10,11-dihydro-5-oxa-10lambda*6*-thia-dibenzo[a,d]cycloheptene-8-carbonyl}-guanidine dimesylate] | 258 to 260 °C |
| Cc1cc(C(=O)N=C(N)N)cc2c1Oc1c(cccc1C(C)C)CS2(=O)=O (as salt: sulfonic acid salt) [Example 31, N-(4-Isopropyl-6-methyl-10,10-dioxo-10,11-dihydro-5-oxa-10lambda*6*-thia-dibenzo[a,d]cycloheptene-8-carbonyl)-guanidine, methane sulfonic acid salt] | 252 to 253 °C |
| CS(=O)(=O)O.CS(=O)(=O)O.Cc1cc(C(=O)NC(=N)N)cc2c1Oc1c(Cl)cc(NC(=O)CNC3CCCCC3)cc1CS2(=O)=O [Example 139, N-(4-Chloro-8-guanidinocarbonyl-6-methyl-10,10-dioxo-10,11-dihydro-5-oxa-10lambda*6*-thia-dibenzo[a,d]cyclohepten-2-yl)-2-cyclohexylamino-acetamide dimesylate] | 194 to 196 °C |
| NC(N)=NC(=O)c1cc(Cl)c2c(c1)S(=O)(=O)Cc1cccc(Cl)c1O2 (as salt: sulfonic acid salt) [Example 45, 4,6-Dichloro-10,10-dioxo-10,11-dihydro-5-oxa-10lambda*6*-thia-dibenzo[a,d]cycloheptene-8-carbonylguanidine, methane sulfonic acid salt] | 270 to 271 °C |
| Cc1cc(C(=O)N=C(N)N)cc2c1Oc1c(Cl)cc(S(=O)(=O)NCc3cccnc3)cc1CS2(=O)=O (as salt: mesylate) [Example 52, 4-Chloro-8-guanidinocarbonyl-6-methyl-10,10-dioxo-10,11-dihydro-5-oxa-10lambda*6*-thia-dibenzo[a,d]cycloheptene-2-sulfonic acid (pyridin-3-ylmethyl)-amide dimesylate] | 271 to 273 °C |
| COc1ccccc1CNCCNc1cc(Cl)c2c(c1)CS(=O)(=O)c1cc(C(=O)NC(=N)N)cc(C)c1O2.CS(=O)(=O)O.CS(=O)(=O)O [Example 90, N-{4-Chloro-2-[2-(2-methoxy-benzylamino)-ethylamino]-6-methyl-10,10-dioxo-10,11-dihydro-5-oxa-10lambda*6*-thia-dibenzo[a,d]cycloheptene-8-carbonyl}-guanidine dimesylate] | 224 to 225 °C |
| CS(=O)(=O)O.CS(=O)(=O)O.CS(=O)(=O)O.Cc1cc(C(=O)NC(=N)N)cc2c1Oc1c(Cl)cc(N3CCN(CCN4CCOCC4)CC3)cc1CS2(=O)=O [Example 121, N-{4-Chloro-6-methyl-2-[4-(2-morpholin-4-yl-ethyl)-piperazin-1-yl]-10,10-dioxo-10,11-dihydro-5-oxa-10lambda*6*-thia-dibenzo[a,d]cycloheptene-8-carbonyl}-guanidine trimesylate] | 185 to 187 °C |
| Cc1cc(C(=O)N=C(N)N)cc2c1Oc1c(Cl)cc(N)cc1CS2(=O)=O (as salt: sulfonic acid salt) [Example 35, N-(2-Amino-4-chloro-6-methyl-10,10-dioxo-10,11-dihydro-5-oxa-10lambda*6*-thia-dibenzo[a,d]cycloheptene-8-carbonyl)-guanidine, methane sulfonic acid salt] | 190 to 192 °C |
| CS(=O)(=O)O.CS(=O)(=O)O.CS(=O)(=O)O.Cc1cc(C(=O)NC(=N)N)cc2c1Oc1c(Cl)cc(N3CCN(Cc4cccnc4)CC3)cc1CS2(=O)=O [Example 128, N-[4-Chloro-6-methyl-10,10-dioxo-2-(4-pyridin-3-ylmethyl-piperazin-1-yl)-10,11-dihydro-5-oxa-10lambda*6*-thia-dibenzo[a,d]cycloheptene-8-carbonyl]-guanidine trimesylate] | 190 to 192 °C |
| Cc1cc(C(=O)N=C(N)N)cc2c1Oc1c(Cl)cc(N3CCN(C4CC4)CC3=O)cc1CS2(=O)=O (as salt: mesylate) [Example 58, N-[4-Chloro-2-(4-cyclopropyl-2-oxo-piperazin-1-yl)-6-methyl-10,10-dioxo-10,11-dihydro-5-oxa-10lambda*6*-thia-dibenzo[a,d]cycloheptene-8-carbonyl]-guanidine dimesylate] | 195 to 196 °C |
| Cc1cc(C(=O)N=C(N)N)cc2c1Oc1c(Cl)cc(CN)cc1CS2(=O)=O (as salt: mesylate) [Example 198, N-(2-Aminomethyl-4-chloro-6-methyl-10,10-dioxo-10,11-dihydro-5-oxa-10lambda*6*-thia-dibenzo[a.d]cycloheptene-8-carbonyl)-guanidine trimesylate] | 242 to 244 °C |
| Cc1cc(C(=O)N=C(N)N)cc2c1Oc1c(Cl)cc(N3CCN(Cc4ccccc4)CC3)cc1CS2(=O)=O (as salt: mesylate) [Example 118, N-[2-(4-Benzyl-piperazin-1-yl)-4-chloro-6-methyl-10,10-dioxo-10,11-dihydro-5-oxa-10lambda*6*-thia-dibenzo[a,d]cycloheptene-8-carbonyl]-guanidine dimesylate] | 280 to 285 °C |
| CS(=O)(=O)O.CS(=O)(=O)O.Cc1cc(C(=O)NC(=N)N)cc2c1Oc1c(Cl)cc(NC(=O)Cn3ccnc3)cc1CS2(=O)=O [Example 137, N-(4-Chloro-8-guanidinocarbonyl-6-methyl-10,10-dioxo-10,11-dihydro-5-oxa-10lambda*6*-thia-dibenzo[a,d]cyclohepten-2-yl)-2-imidazol-1-yl-acetamide dimesylate] | 252 to 254 °C |

Other lines, results leading:

| melting point | Structure (SMILES) |
| --- | --- |
| 282 to 287 °C | CS(=O)(=O)O.CS(=O)(=O)O.Cc1cc(C(=O)NC(=N)N)cc2c1Oc1c(Cl)cc(N3CCN(CC4CC4)CC3)cc1CS2(=O)=O [Example 123, N-[4-Chloro-2-(4-cyclopropylmethyl-piperazin-1-yl)-6-methyl-10,10-dioxo-10,11-dihydro-5-oxa-10lambda*6*-thia-dibenzo[a,d]cycloheptene-8-carbonyl]-guanidine dimesylate] |
| 250 to 251 °C | CCCCCN1CCN(c2cc(Cl)c3c(c2)CS(=O)(=O)c2cc(C(=O)NC(=N)N)cc(C)c2O3)CC1.CS(=O)(=O)O.CS(=O)(=O)O [Example 106, N-[4-Chloro-6-methyl-10,10-dioxo-2-(4-pentyl-piperazin-1-yl)-10,11-dihydro-5-oxa-10-lambda*6*-thia-dibenzo[a,d]cycloheptene-8-carbonyl]-guanidine dimesylate] |
| 128 to 130 °C | CC(=O)N(CCN(C)C)c1cc(Cl)c2c(c1)CS(=O)(=O)c1cc(C(=O)NC(=N)N)cc(C)c1O2.CS(=O)(=O)O.CS(=O)(=O)O.CS(=O)(=O)O [Example 100, N-(4-Chloro-8-guanidinocarbonyl-6-methyl-10,10-dioxo-10,11-dihydro-5-oxa-10lambda*6*-thia-dibenzo[a,d]cyclohepten-2-yl)-N-(2-dimethylamino-ethyl)-acetamide trimesylate] |
| 248 to 250 °C | CCN(CCN1CCOCC1)c1cc(Cl)c2c(c1)CS(=O)(=O)c1cc(C(=O)NC(=N)N)cc(C)c1O2.CS(=O)(=O)O.CS(=O)(=O)O [Example 67, N-{4-Chloro-2-[ethyl-(2-morpholin-4-yl-ethyl)-amino]-6-methyl-10,10-dioxo-10,11-dihydro-5-oxa-10lambda*6*-thia-dibenzo[a,d]cycloheptene-8-carbonyl}-guanidine dimesylate] |
| 198 to 200 °C | CS(=O)(=O)O.CS(=O)(=O)O.Cc1cc(C(=O)NC(=N)N)cc2c1Oc1c(Cl)cc(N(CCN3CCCC3)C(=O)OCC(C)C)cc1CS2(=O)=O [Example 74, (4-Chloro-8-guanidinocarbonyl-6-methyl-10,10-dioxo-10,11-dihydro-5-oxa-10lambda*6*-thia-dibenzo[a,d]cycloheptene-2-yl)-(2-pyrrolidin-1-yl-ethyl)-carbamic acid isobutylester dimesylate] |
| 150 to 152 °C | CS(=O)(=O)O.CS(=O)(=O)O.CS(=O)(=O)O.Cc1cc(C(=O)NC(=N)N)cc2c1Oc1c(Cl)cc(N(CCN3CCCC3)C(=O)CNC3CC3)cc1CS2(=O)=O [Example 150, N-(4-Chloro-8-guanidinocarbonyl-6-methyl-10,10-dioxo-10,11-dihydro-5-oxa-10-lambda*6*-thia-dibenzo[a,d]cycloheptene-2-yl)-2-cyclopropylamino-N-(2-pyrrolidin-1-yl-ethyl)-acetamide trimesylate] |
| 190 to 192 °C | CS(=O)(=O)O.CS(=O)(=O)O.Cc1cc(C(=O)NC(=N)N)cc2c1Oc1c(Cl)cc(NC(=O)CNC3CCCC3)cc1CS2(=O)=O [Example 140, N-(4-Chloro-8-guanidinocarbonyl-6-methyl-10,10-dioxo-10,11-dihydro-5-oxa-10lambda*6*-thia-dibenzo[a,d]cyclohepten-2-yl)-2-cyclopentylamino-acetamide dimesylate] |
| 190 to 191 °C | CS(=O)(=O)O.CS(=O)(=O)O.Cc1cc(C(=O)NC(=N)N)cc2c1Oc1c(Cl)cc(NC(=O)CN(C)C)cc1CS2(=O)=O [Example 142, N-(4-Chloro-8-guanidinocarbonyl-6-methyl-10,10-dioxo-10,11-dihydro-5-oxa-10lambda*6*-thia-dibenzo[a,d]cyclohepten-2-yl)-2-dimethylamino-acetamide dimesylate] |
| 185 to 187 °C | CS(=O)(=O)O.CS(=O)(=O)O.Cc1cc(C(=O)NC(=N)N)cc2c1Oc1c(Cl)cc(N3CCN(CCO)CC3)cc1CS2(=O)=O [Example 197, N-{4-Chloro-2-[4-(2-hydroxy-ethyl)-piperazin-1-yl]-6-methyl-10,10-dioxo-10,11-dihydro-5-oxa-10lambda*6*-thia-dibenzo[a,d]cycloheptene-8-carbonyl}-guanidine dimesylate] |
| 178 to 180 °C | CS(=O)(=O)O.CS(=O)(=O)O.Cc1cc(C(=O)NC(=N)N)cc2c1Oc1c(Cl)cc(NC(=O)CN3CCCCC3)cc1CS2(=O)=O [Example 134, N-(4-Chloro-8-guanidinocarbonyl-6-methyl-10,10-dioxo-10,11-dihydro-5-oxa-10lambda*6*-thia-dibenzo[a,d]cycloheptene-2-yl)-2-piperidin-1-yl-acetamide dimesylate] |
